Results as given in US7786165B2, “Aminophenylpropanoic acid derivative” (Takeda Pharmaceutical Company Limited, priority 2004, dated 2010).
Structures can show the parent of a compound that is named as a salt.

Each molecule was assayed against T1, human GPR40 (Homo sapiens, UniProt O14842) (assay: Determination of EC50 for human GPR40: intracellular calcium change by FLIPR in CHO cells stably expressing human GPR40). Conditions: CHO cell line stably expressing human GPR40, changes in intracellular calcium concentration, Fluo3-AM, read-out: EC50 (Receptor Function Modulating Action On GPR40).
T1 construct: expressed in transfected cells; host or cells: CHO cell line stably expressing human GPR40
T1 sequence (O14842 whole entry): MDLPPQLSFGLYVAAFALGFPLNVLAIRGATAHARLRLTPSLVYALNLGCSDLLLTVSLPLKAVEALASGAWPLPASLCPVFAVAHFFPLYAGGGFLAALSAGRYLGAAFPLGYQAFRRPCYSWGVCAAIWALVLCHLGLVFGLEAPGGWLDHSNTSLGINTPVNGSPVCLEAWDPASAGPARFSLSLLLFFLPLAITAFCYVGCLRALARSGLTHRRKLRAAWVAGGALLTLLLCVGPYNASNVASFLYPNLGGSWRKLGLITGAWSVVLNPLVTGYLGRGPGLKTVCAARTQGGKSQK
Format: cell-based
Experimental: Determination of EC50 of the Compound of the Present Invention for Human GPR40
For determination of EC50, CHO cell line that stably expressed human GPR40 was used. Unless otherwise indicated, the CHO cell line was cultured using α-MEM medium (Invitrogen) containing 10% fetal calf serum (Invitrogen).
The cells cultured to nearly confluent were rinsed with PBS (Invitrogen) on the previous day of the assay, peeled off with 0.05% Trypsin-EDTA solution (Invitrogen) and recovered by centrifugation. The number of the obtained cells was counted, and the cells were diluted such that 3×10^5 cells were contained per 1 mL of the medium, dispensed to a black welled 96-well plate (coster) by 100 μL per well and cultured overnight in a CO2 incubator. Various test compounds were added to the CHO cells thus prepared, and the changes in the intracellular calcium concentration were measured using FLIPR (Molecular Device). The below-mentioned pre-treatment was applied to measure changes in the intracellular calcium concentration by FLIPR.
First, an assay buffer for adding a fluorescence dye Fluo3-AM (DOJIN) to the cells, or for washing the cells immediately before FLIPR assay was prepared. To a solution of HBSS (Invitrogen, 1000 mL) to which 1M HEPES (pH 7.4, DOJIN, 20 mL) added (hereinafter HBSS/HEPES solution) was added a solution (10 mL) obtained by dissolving probenecid (Sigma, 710 mg) in 1N NaOH (5 mL), and adding and mixing an HBSS/HEPES solution (5 mL), and the resulting solution was used as an assay buffer. Next, Fluo3-AM (50 μg) was dissolved in dimethylsulfoxide (Wako, 21 μL), and an equivalent amount of 20% pluronic acid (Molecular Probes) was added and mixed. The solution was added to the assay buffer (10.6 mL) supplemented with fetal vovine serum (105 μL) to give a fluorescence dye solution. The medium of the CHO cells inoculated to the black welled 96-well plate on the previous day of assay was removed, the fluorescence dye solution was immediately dispensed by 100 μL per well and the cells were cultured in a CO2 incubator for 1 hr to allow intake of the fluorescence dye by the cells. The cells after the culture were washed with the above-mentioned assay buffer and set on FLIPR. The test compound was diluted with dimethylsulfoxide in advance, dispensed to polypropylene 96-well plate (sample plate) by […], and cryopreserved at −20° C. To the thawed sample plate was added an assay buffer containing 0.015% CHAPS (DOJIN) by 198 μL, and simultaneously set on FLIPR together with the cell plate. After the aforementioned pre-treatment, changes in the intracellular calcium concentration upon addition of various test compounds as measured by FLIPR. Based on the results, a dose-response curve of each test compound was formed and EC50 was calculated.

| EC50 | Structure (SMILES) |
| --- | --- |
| < 100 nM | CCN(CCOc1cc(C)c(-c2cccc(CNc3ccc(CCC(=O)O)c(F)c3)c2)c(C)c1)C(C)=O [Example 200, 3-(4-{[(4′-{2-[acetyl(ethyl)amino]ethoxy}-2′,6′-dimethylbiphenyl-3-yl)methyl]amino}-2-fluorophenyl)propanoic acid methanesulfonate] |
| < 100 nM | CCOCCOc1cc(C)c(-c2cccc(CNc3ccc(CC(F)(F)C(=O)O)cc3)c2)c(C)c1 [Example 117, 3-[4-({[4′-(2-ethoxyethoxy)-2′,6′-dimethylbiphenyl-3-yl]methyl}amino)phenyl]-2,2-difluoropropanoic acid] |
| < 100 nM | CCOCCOc1cc(C)c(-c2cccc(CNc3ccc4c(c3)OCC4CC(=O)O)c2)c(C)c1 (centres unmarked) [Example 86, [6-({[4′-(2-ethoxyethoxy)-2′,6′-dimethylbiphenyl-3-yl]methyl}amino)-2,3-dihydro-1-benzofuran-3-yl]acetic acid hydrochloride] |
| < 100 nM | CCOCCOc1cc(C)c(-c2cccc(CNc3ccc(CCC(=O)O)cc3)c2)c(C)c1 [Example 37, 3-[4-({[4′-(2-ethoxyethoxy)-2′,6′-dimethylbiphenyl-3-yl]methyl}amino)phenyl]propanoic acid hydrochloride] |
| < 100 nM | Cc1cccc(C)c1-c1cccc2c1CCC2Nc1ccc(CCC(=O)O)c(F)c1 (centres unmarked) [Example 218, 3-(4-{[4-(2,6-dimethylphenyl)-2,3-dihydro-1H-inden-1-yl]amino}-2-fluorophenyl)propanoic acid] |
| < 100 nM | CCS(=O)(=O)CCOc1cc(C)c(-c2cccc(CNc3ccc(CCC(=O)O)c(F)c3)c2)c(C)c1 [Example 146, 3-{4-[({4′-[2-(ethylsulfonyl)ethoxy]-2′,6′-dimethylbiphenyl-3-yl}methyl)amino]-2-fluorophenyl}propanoic acid methanesulfonate] |
| < 100 nM | Cc1cc(OCC2CC2)cc(C)c1-c1cccc(CNc2ccc(CCC(=O)O)cc2)c1 [Example 33, 3-[4-({[4′-(cyclopropylmethoxy)-2′,6′-dimethylbiphenyl-3-yl]methyl}amino)phenyl]propanoic acid hydrochloride] |
| < 100 nM | O=C(O)CCc1ccc(NCc2ccc(Cn3c(-c4ccccc4)cc4ccccc43)cc2)cc1 [Example 12, 3-[4-({4-[(2-phenyl-1H-indol-1-yl)methyl]benzyl}amino)phenyl]propanoic acid hydrochloride] |
| < 100 nM | Cc1cc(OCc2ccccc2)cc(C)c1-c1cccc(CNc2ccc(CCC(=O)O)cc2)c1 [Example 30, 3-[4-({[4′-(benzyloxy)-2′,6′-dimethylbiphenyl-3-yl]methyl}amino)phenyl]propanoic acid hydrochloride] |
| < 100 nM | Cc1cc(OCC2(C)COC2)cc(C)c1-c1cccc(CNc2ccc(CCC(=O)O)c(F)c2)c1 [Example 151, 3-{4-[({2′,6′-dimethyl-4′-[(3-methyloxetan-3-yl)methoxy]biphenyl-3-yl}methyl)amino]-2-fluorophenyl}propanoic acid methanesulfonate] |
| < 100 nM | O=C(O)CCc1ccc(NCc2ccc(CN(CCc3ccccc3)c3nc(-c4ccccc4)cs3)cc2)cc1 [Example 18, 3-{4-[(4-{[(2-phenylethyl)(4-phenyl-1,3-thiazol-2-yl)amino]methyl}benzyl)amino]phenyl}propanoic acid] |
